In US12643887B2, “Heterocyclic derivatives with cardiomyocyte proliferation activity for treatment of heart diseases” (Tongji University, priority 2019, dated 2026) one finds IC50 data, which are given here for 15 molecules.

For one assay, the target named is T1, human CLK1 (Homo sapiens, UniProt P49759).
T1 construct: Recombinant human CLK1 (129-end); GST (N); purchased SignalChem C57-11G; host or cells: Sf9 insect cells
Description: CLK1 enzyme assay (ADP-Glo). Type of assay: biochemical. The note with it: ADP-Glo, ATP 10 μM; read-out: CLK1 IC50. In a few lines: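 GST-tagged CLK1 (129-end, Sf9-expressed) at 16 nM was preincubated with compound 30 min at 25 °C in 40 mM Tris pH 7.5, 20 mM MgCl2, 0.1 mg/ml BSA, 50 μM DTT. Reaction with 2 μM substrate and 10 μM ATP ran 60 min at 25 °C. ADP-Glo luminescence gave IC50 by four-parameter fit.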
(In general: ADP-Glo turns the ADP formed in a reaction into a luminescent signal.)

The target in the next assay is T2, human HIPK1 (Homo sapiens, UniProt Q86Z02).
T2 construct: Recombinant human HIPK1 (156-555); GST (N); purchased SignalChem H03-11G; host or cells: Sf9 insect cells
T2 sequence (Q86Z02 156-555): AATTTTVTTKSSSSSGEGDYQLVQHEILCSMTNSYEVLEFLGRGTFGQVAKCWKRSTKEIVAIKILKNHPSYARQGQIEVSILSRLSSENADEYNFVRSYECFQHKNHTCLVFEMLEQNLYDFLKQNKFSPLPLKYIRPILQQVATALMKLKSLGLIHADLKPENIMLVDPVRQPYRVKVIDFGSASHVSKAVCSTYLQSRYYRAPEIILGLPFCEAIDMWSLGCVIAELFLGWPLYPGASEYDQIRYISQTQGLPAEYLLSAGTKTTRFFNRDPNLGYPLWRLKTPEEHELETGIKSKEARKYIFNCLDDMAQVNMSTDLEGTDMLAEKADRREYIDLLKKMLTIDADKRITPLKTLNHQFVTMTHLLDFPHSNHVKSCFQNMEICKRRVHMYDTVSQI
The experiment in a line: HIPK1 enzyme assay (ADP-Glo). The following applies: ADP-Glo, ATP 5 μM; read-out: HIPK1 IC50. The class given is biochemical. In a few lines: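 Recombinant GST-tagged HIPK1 (156-555, Sf9), 4 nM, preincubated 30 min at 25° C with compound in Tris pH 7.5/MgCl2/BSA/DTT, then reacted 90 min with 0.05 mg/ml MBP and 5 μM ATP. ADP formed read by ADP-Glo luminescence; IC50 from four-parameter logistic fit of % inhibition versus Max/Min controls.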

T1 sequence (P49759 129-484 limits assumed): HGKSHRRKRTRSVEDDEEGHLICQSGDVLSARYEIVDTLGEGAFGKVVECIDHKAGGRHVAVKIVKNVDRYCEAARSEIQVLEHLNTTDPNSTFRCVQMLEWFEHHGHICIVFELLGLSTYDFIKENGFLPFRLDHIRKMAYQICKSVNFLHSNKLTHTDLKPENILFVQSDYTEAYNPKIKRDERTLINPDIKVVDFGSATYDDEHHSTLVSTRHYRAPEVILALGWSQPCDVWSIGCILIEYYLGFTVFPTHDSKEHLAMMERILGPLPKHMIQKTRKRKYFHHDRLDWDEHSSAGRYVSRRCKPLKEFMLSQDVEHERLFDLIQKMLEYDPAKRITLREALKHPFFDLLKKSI

As for `O=C1NC(Nc2ccc3ncsc3c2)=N/C1=C\c1ccc2c(c1)OCCO2` [Example 74, (Z)-2-(benzo[d]thiazol-6-ylamino)-5-((2,3-dihydrobenzo[b][1,4]dioxin-6-yl)methylene)-3,5-dihydro-4H-imidazol-4-one], the values for the IC50 at human CLK1 and at human HIPK1 were greater than 10000 nM and greater than 10 µM, respectively.
On the same counts, the results for `Cn1cnc2ccc(/C=C3\N=C(Nc4ccc5ncsc5c4)NC3=O)cc21` [Example 75, (Z)-2-(benzo[d]thiazol-6-ylamino)-5-((1-methyl-1H-benzo[d]imidazol-6-yl)methylene)-3,5-dihydro-4H-imidazol-4-one] are less than 100 nM and less than 0.1 µM.
On the same counts, the results for `O=C1NC(Nc2ccc3ncsc3c2)=N/C1=C\c1ccc2nc[nH]c2c1` [Example 76, (Z)-5-((1H-benzo[d]imidazol-6-yl)methylene)-2-(benzo[d]thiazol-6-ylamino)-3,5-dihydro-4H-imidazol-4-one] are less than 100 nM and 0.1 to 1 µM.
On the same counts, the results for `Cn1ncc2cc(/C=C3\N=C(Nc4ccccc4)NC3=O)ccc21` [Example 77, (Z)-5-((1-methyl-1H-indazol-5-yl)methylene)-2-(phenylamino)-3,5-dihydro-4H-imidazol-4-one] are 100 to 1000 nM and greater than 10 µM.
On to `Cn1ncc2cc(/C=C3\N=C(Nc4ccc5ncsc5c4)NC3=O)ccc21` [Example 78, (Z)-2-(benzo[d]thiazol-6-ylamino)-5-((1-methyl-1H-indazol-5-yl)methylene)-3,5-dihydro-4H-imidazol-4-one], for which the IC50 on human CLK1 was greater than 10000 nM; on human HIPK1 it was greater than 10 µM.
On the same counts, the results for `Cn1ncc2ccc(/C=C3\N=C(Nc4ccccc4)NC3=O)cc21` [Example 79, 5-((1-methyl-1H-indazol-6-yl)methylene)-2-(phenylamino)-3,5-dihydro-4H-imidazol-4-one] are greater than 10000 nM and greater than 10 µM.
Take `Cn1ncc2ccc(/C=C3\N=C(Nc4ccc5ncsc5c4)NC3=O)cc21` [Example 80, (Z)-2-(benzo[d]thiazol-6-ylamino)-5-((1-methyl-1H-indazol-6-yl)methylene)-3,5-dihydro-4H-imidazol-4-one]: the results for the IC50 on human CLK1 and on human HIPK1 were greater than 10000 nM and greater than 10 µM, respectively.
On the same counts, the results for `O=C1NC(Nc2ccc3c(c2)OCCO3)=N/C1=C\c1ccc2ncsc2c1` [Example 81, (Z)-5-(benzo[d]thiazol-6-ylmethylene)-2-((2,3-dihydrobenzo[b][1,4]dioxin-6-yl)amino)-3,5-dihydro-4H-imidazol-4-one] are less than 100 nM and 0.1 to 1 µM.
`O=C1NC(Nc2ccc3nccnc3c2)=N/C1=C\c1ccc2ncsc2c1` [Example 82, (Z)-5-(benzo[d]thiazol-6-ylmethylene)-2-(quinoxalin-6-ylamino)-3,5-dihydro-4H-imidazol-4-one]: the IC50 at human CLK1 is less than 100 nM; on human HIPK1, greater than 10 µM.
On the same counts, the results for `CN(C1=N/C(=C\c2ccc3ncsc3c2)C(=O)N1)c1ccc2ncsc2c1` [Example 83, (Z)-2-(benzo[d]thiazol-6-yl(methyl)amino)-5-(benzo[d]thiazol-6-ylmethylene)-3,5-dihydro-4H-imidazol-4-one] are less than 100 nM and greater than 10 µM.
On the same counts, the results for `CN(C1=N/C(=C\c2ccc3c(c2)OCCO3)C(=O)N1)c1ccc2ncsc2c1` [Example 84, (Z)-2-(benzo[d]thiazol-6-yl(methyl)amino)-5-((2,3-dihydrobenzo[b][1,4]dioxin-6-yl)methylene)-3,5-dihydro-4H-imidazol-4-one] are 100 to 1000 nM and greater than 10 µM.
On the same counts, the results for `O=C1NC(Nc2ccc3ncsc3c2)=NC1Cc1ccc2ncsc2c1` (stereo not drawn) [Example 102, 2-(benzo[d]thiazol-6-ylamino)-5-(benzo[d]thiazol-6-ylmethyl)-3,5-dihydro-4H-imidazol-4-one] are 100 to 1000 nM and 0.1 to 1 µM.
With `NC1=N/C(=C\c2ccc3ncsc3c2)C(=O)N1` [Example 103, (Z)-2-amino-5-(benzo[d]thiazol-6-ylmethylene)-3,5-dihydro-4H-imidazol-4-one], the values for the IC50 on human CLK1 and at human HIPK1 were less than 100 nM and 0.1 to 1 µM, respectively.
Turning to `O=C1NC(Nc2ccc3nc(Nc4ccccc4)sc3c2)=N/C1=C\c1ccc2ncsc2c1` [Example 104, (Z)-5-(benzo[d]thiazol-6-ylmethylene)-2-((2-(phenylamino)benzo[d]thiazol-6-yl)amino)-3,5-dihydro-4H-imidazol-4-one], the IC50 on human CLK1 is less than 100 nM; on human HIPK1 it was greater than 10 µM.
Consider `O=C1NC(N(CC2CC2)c2ccc3ncsc3c2)=N/C1=C\c1ccc2ncsc2c1` [Example 105, (Z)-2-(benzo[d]thiazol-6-yl(cyclopropylmethyl)amino)-5-(benzo[d]thiazol-6-ylmethylene)-3,5-dihydro-4H-imidazol-4-one], for which the figures for the IC50 on human CLK1 and on human HIPK1 were greater than 10000 nM and greater than 10 µM, respectively.

By IC50 is commonly meant the concentration needed to halve the response being measured.
